Laboratory results from patent EP2886531B1, “Aspartic acid derivatives” (Merck Patent GmbH, priority 2013, dated 2015).

Assays:
[1] = Prolonged piperidine treatment of VKDNYI peptide resin (aspartimide formation, Asp-Asn motif); assay type: physicochemical; settings: for D/L-Asu [%] / piperidides [%] / target [%]: 110 Fmoc removal cycles; for target [%]: target peptide VKDNYI
Method: (§1) Automated peptide synthesis, piperidine treatments of the resin samples and final TFA cleavages are performed as described in the protocols of example 4. In addition, 50 mg peptide resin samples are treated with a solution of DBU/piperidine/DMF (1:19:79) over 225 minutes to investigate the aspartimide formation at harsher Fmoc deprotection conditions often used for complete Fmoc removals in aggregation prone sequences.
(§2) The resulting peptide samples are analysied and all relevant impurities identified by UPLC-MS analysis (Xevo Waters Q-TOF-1, lock mass = 556.277 (leu-enkephaline), LC-conditions: CHS 18 1,7 µm (100x2.1 mm) at 40°C; water acetonitrile gradient of 5% to 35 % B over 10 min where buffer A is 0.1 % formic acid in water and buffer B is 0.1 % formic acid in acetonitrile, flow 0.6 ml/min).
In table 2 the amounts of by-products formed after the prolonged exposure of the peptide resins to piperidine (110 Fmoc removal cycles) are summarized for all side-chain protections used in this invention. […] Table 2: Results after 110 Fmoc removal cycles using piperidine, target peptide = VKDNYI, the aspartimide (Asu) derived by products are the aspartimide itself and the sum of piperidides

[2] = Prolonged piperidine treatment at 60°C of VKDRYI peptide resin (aspartimide formation); assay type: physicochemical; settings: for D/L-Asu [%] / piperidides [%]: 20% piperidine in DMF at 60°C, 200 minutes; for target [%]: target peptide VKDRYI, 20% piperidine in DMF at 60°C over 200 minutes, 100 Fmoc removal cycles
Method: (§3) Automated peptide synthesis, piperidine treatments of the resin samples and final TFA cleavages are performed as described in the protocols of example 4. In addition, to evaluate the advantage of the protecting groups used in this invention in heat accelerated SPPS we treat 50 mg peptide resin samples with a solution of 20% piperidine in DMF at 60°C over 200 minutes. Microwave assisted peptide synthesis conditions are often used to shorten peptide synthesis times and increase coupling reaction and Fmoc deprotection.
The application of microwave heating to SPPS is accelerating coupling and deprotection reactions leading to shorter cycle times, higher repetitive yields, and ultimately purer peptides. On the other hand, microwave energy can also lead to increased levels of aspartimide by-products. To overcome that drawback we evaluated the advantage of the side-chain protections used in this invention by exposing the peptide resins to Fmoc removal cycles at 60 degrees Celsius.
In table 5 the amounts of by-products formed after the prolonged exposure of the peptide resins to piperidine at 60 degree Celsius (100 Fmoc removal cycles) are summarized for all side-chain protections used in this invention. […] Table 5: Results after 100 Fmoc removal cycles using piperidine at 60°C, target peptide sequence = VKDRYI, the aspartimide (Asu) derived by-products are the aspartimide itself and the sum of piperidides

[3] = Prolonged DBU treatment of VKDNYI peptide resin (aspartimide formation); assay type: physicochemical; settings: for D/L-Asu [%] / piperides [%]: DBU/piperidine/DMF (1:19:79), 225 minutes; for target [%]: target peptide VKDNYI, DBU/piperidine/DMF (1:19:79) over 225 minutes, 110 Fmoc removal cycles
Method: as §1, §2
In table 3 the amounts of by-products formed after prolonged DBU treatments are summarized for all side-chain protections used in this invention. […] Since the DBU mediated Fmoc removals are much quicker than the piperidine mediated, this experiment again represents a Fmoc SPPS assembly of an 100mer after introducing the aspartic acid residue using exclusively DBU for Fmoc cleavage. Table 3: Results after 110 Fmoc removal cycles using DBU, target peptide = VKDNYI, the aspartimide (Asu) derived by-products are the aspartimide itself and the sum of piperidides

[4] = Prolonged piperidine treatment of VKDRYI peptide resin (aspartimide formation, Asp-Arg motif); assay type: physicochemical; settings: for Asu per 10' cycle / Half-life in cycles / D/L-Asu [%] / piperidides [%]: VKDRYI; for D/L-Asu [%] / piperidides [%] / target [%]: 110 Fmoc removal cycles; for target [%]: target peptide VKDRYI
Method: as §3
In table 4 the amounts of by-products formed after the prolonged exposure of the peptide resins to piperidine (110 Fmoc removal cycles) are summarized for all side-chain protections used in this invention. Table 4: Results after 110 Fmoc removal cycles using piperidine, target peptide sequence = VKDRYI, the aspartimide (Asu) derived by-products are the aspartimide itself and the sum of piperidides

[5] = Prolonged piperidine treatment of VKDGYI peptide resin (aspartimide formation, Asp-Gly motif)
[6] = Prolonged treatment of VKDGYI peptide resin with 1 M Oxyma Pure and 20 % piperidine (aspartimide formation); assay type: physicochemical; settings: for Asu per 10' cycle / Asu [%] / piperidides [%]: Oxyma Pure +; for Asu [%] / piperidides [%] / target [%]: 18 hours; for target [%]: Oxyma Pure +: 1 M Oxyma Pure and 20 % piperidine in dimethylformamide
Method: [drawing 14] 50 mg samples of the corresponding aspartic acid derivatives of example 4 are treated over 18 hours with a solution of 1 M Oxyma Pure and 20 % piperidine in dimethylformamide. The peptides are cleaved off the resin with 95 % TFA and analysed with HPLC as well as MS to identify all aspartimide related products (conditions see example 4). The results are summarized in table 6: Table 6: Results after 110 Fmoc removal cycles using an acidic modifier in the piperidine mediated Fmoc removal cocktails, target peptide = VKDG YI, the aspartimide derived by-products are the aspartimide itself and the sum of piperidides

[7] = VKDGYI, 20 % piperidine in dimethylformamide
[8] = VKDGYI, 20 % piperidine in dimethylformamide, 18 hours, aspartimide
[9] = VKDGYI, 20 % piperidine in dimethylformamide, 18 hours, sum of piperidides
[10] = VKDGYI, Oxyma Pure -: 20 % piperidine only, 18 hours (as Table 1)
[11] = target peptide VKDGYI, 20 % piperidine in dimethylformamide over 18 hours, 110 Fmoc removal cycles
[12] = VKDGYI, 1 M Oxyma Pure in 20 % piperidine

CCCC(CCC)(CCC)OC(=O)C[C@H](NC(=O)OCC1c2ccccc2-c2ccccc21)C(=O)O [Php, (2S)-N-((9H-fluoren-9-ylmethyloxy)carbonyl)aspartic acid-4-(4-(n-propyl)hept-4-yl) ester]
Half-life in cycles [1]: 800 cycles
Asu per 10' cycle ([1]; VKDNYI, piperidine): 0.09
D/L-Asu [%] ([1]; VKDNYI, piperidine): 1.0%
piperidides [%] ([1]; VKDNYI, piperidine): 8.2%
target [%] ([1]; piperidine): 90.8%
Half-life in cycles [2]: 532 cycles
D/L-Asu [%] ([2]; VKDRYI): 7.1%
piperidides [%] ([2]; VKDRYI): 5.1%
Asu per 10' cycle ([2]; VKDRYI, piperidine at 60°C): 0.1
target [%] [2]: 87.8%
Half-life in cycles [3]: 192 cycles
Asu per 2' cycle ([3]; VKDNYI, DBU): 0.4
D/L-Asu [%] ([3]; VKDNYI): 3.3%
piperides [%] ([3]; VKDNYI): 25.7%
target [%] [3]: 71.0%
Asu per 10' cycle [4]: 0.08
Half-life in cycles [4]: 845 cycles
D/L-Asu [%] [4]: 3.2%
piperidides [%] [4]: 5.5%
target [%] [4]: 91.3%
half-life of the target peptide increased, in respect of Mpe ([5]; VKDGYI, Asp-Gly sequence, relative to Mpe protection): 4 fold
half-life of the target peptide increased, instead of tBu ([5]; VKDGYI, Asp-Gly sequence, relative to tBu protection): more than 10 fold
Asu per 10' cycle [%] [5, 7]: 0.2%
Asu [%] [5, 8]: 2.9%
piperidides [%] [5, 9]: 16.5%
Asu [%] ([5]; VKDGYI, Oxyma Pure -): 2.9%
Asu per 10' cycle ([5]; VKDGYI, Oxyma Pure -): 0.2
piperidides [%] ([5]; VKDGYI, Oxyma Pure -): 16.5%
target [%] [5, 10]: 80.6%
target [%] [5, 11]: 80.6%
aspartimide side reaction ([6]; Asp-Gly sequence, Fmoc removal solution of 1 M Oxyma Pure in piperidine/DMF 1:4): nearly inhibits the apartimide side reaction
aspartimide derived by-products per Fmoc removal [6, 12]: 0.05%
half-life [6, 12]: greater than 1500 cycles
Asu per 10' cycle ([6]; VKDGYI): 0.04
Asu [%] ([6]; VKDGYI): 1.3%
piperidides [%] ([6]; VKDGYI): 3.3%
target [%] ([6]; VKDGYI): 95.4%

CC(C)(C)OC(=O)C[C@H](NC(=O)OCC1c2ccccc2-c2ccccc21)C(=O)O [tBu, Fmoc-Asp(OtBu)-OH, reference compound]
Asu per 10' cycle ([1]; VKDNYI, piperidine): 1.6
Half-life in cycles ([1]; VKDNYI, piperidine): 40 cycles
D/L-Asu [%] ([1]; VKDNYI, piperidine): 4.9%
piperidides [%] ([1]; VKDNYI, piperidine): 79.0%
target [%] ([1]; piperidine): 16.1%
D/L-Asu [%] ([2]; VKDRYI): 28.7%
piperidides [%] ([2]; VKDRYI): 41.0%
Asu per 10' cycle ([2]; VKDRYI, piperidine at 60°C): 1.2
Half-life in cycles ([2]; VKDRYI, piperidine at 60°C): 58 cycles
target [%] [2]: 30.3%
Asu per 2' cycle ([3]; VKDNYI, DBU): 5.2
Half-life in cycles ([3]; VKDNYI, DBU, 2' cycles): 13 cycles
D/L-Asu [%] ([3]; VKDNYI): 2.6%
piperides [%] ([3]; VKDNYI): 97.1%
target [%] [3]: 0.3%
Asu per 10' cycle [4]: 1.3
Half-life in cycles [4]: 55 cycles
D/L-Asu [%] [4]: 16.9%
piperidides [%] [4]: 58.4%
target [%] [4]: 24.7%
Asu per 10' cycle [%] [5, 7]: 2.3%
Half-life in 10' cycles [5, 7]: 30 10' cycles
Asu [%] [5, 8]: 6.4%
piperidides [%] [5, 9]: 85.6%
Asu [%] ([5]; VKDGYI, Oxyma Pure -): 6.4%
Asu per 10' cycle ([5]; VKDGYI, Oxyma Pure -): 2.3
piperidides [%] ([5]; VKDGYI, Oxyma Pure -): 85.6%
target [%] [5, 10]: 8.0%
target [%] [5, 11]: 8.0%
Asu per 10' cycle ([6]; VKDGYI): 0.45
Asu [%] ([6]; VKDGYI): 8.8%
piperidides [%] ([6]; VKDGYI): 30.1%
target [%] ([6]; VKDGYI): 61.1%
